The structures appear in SMILES notation.

The first assay addresses T1, HMG-CoA reductase (Homo sapiens, UniProt P04035).
T1 construct: endogenous in cells; host or cells: HepG2 (Korea Cell Line Bank)
T1 sequence (P04035 1-888): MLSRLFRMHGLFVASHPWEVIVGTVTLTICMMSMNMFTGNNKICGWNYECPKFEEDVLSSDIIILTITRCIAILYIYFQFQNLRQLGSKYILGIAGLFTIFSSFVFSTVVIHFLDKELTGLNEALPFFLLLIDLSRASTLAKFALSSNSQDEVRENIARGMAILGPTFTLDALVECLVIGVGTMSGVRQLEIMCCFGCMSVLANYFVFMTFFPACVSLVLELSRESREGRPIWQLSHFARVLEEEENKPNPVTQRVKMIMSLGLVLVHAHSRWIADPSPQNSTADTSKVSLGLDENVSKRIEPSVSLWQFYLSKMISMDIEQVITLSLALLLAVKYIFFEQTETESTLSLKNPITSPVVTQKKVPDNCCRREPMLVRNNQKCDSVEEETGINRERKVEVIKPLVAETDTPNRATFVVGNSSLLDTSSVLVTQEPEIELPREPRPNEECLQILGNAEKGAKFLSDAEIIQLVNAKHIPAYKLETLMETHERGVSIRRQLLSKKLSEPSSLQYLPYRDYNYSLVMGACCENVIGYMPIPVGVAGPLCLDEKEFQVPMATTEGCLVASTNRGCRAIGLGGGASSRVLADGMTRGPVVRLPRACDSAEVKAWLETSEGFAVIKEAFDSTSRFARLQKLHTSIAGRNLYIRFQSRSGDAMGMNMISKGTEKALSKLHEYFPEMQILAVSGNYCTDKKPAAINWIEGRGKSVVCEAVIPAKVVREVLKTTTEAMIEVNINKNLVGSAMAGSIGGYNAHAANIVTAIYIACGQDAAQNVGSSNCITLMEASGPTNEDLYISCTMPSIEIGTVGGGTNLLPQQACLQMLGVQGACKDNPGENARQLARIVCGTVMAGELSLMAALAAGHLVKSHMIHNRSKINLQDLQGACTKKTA
The assay can be described thus: HMG-CoA reductase (HMGCR) degradation in HepG2 cells by western blotting. The assay is classed as cell-based. The conditions noted are these: treated for 18 hours, ratio of HMG-CoA reductase to GAPDH. Put shortly:
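HepG2 cells (passage P105–P110) treated 18 hours with compounds in 10-point three-fold dilutions from 3 μM. RIPA lysates (15 μg protein, BCA-quantified) run on SDS-PAGE and immunoblotted for HMGCR (1:500) with GAPDH (1:20000) as loading control, primary antibodies 16 hours at 4° C.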
(In general: A western blot detects proteins with antibodies after separation by electrophoresis.)
In general, DC50 refers to the concentration at which degradation of the target reaches its halfway point. With `Cc1ncsc1-c1ccc(CNC(=O)[C@@H]2C[C@@H](O)CN2C(=O)[C@@H](NC(=O)C2(F)CC2)C(C)(C)C)c(OCCOCCOCCOCCOCCNC(=O)O[C@H]2C[C@@H](C)C=C3C=C[C@H](C)[C@H](CC[C@@H]4C[C@@H](O[Si](C)(C)C(C)(C)C)CC(=O)O4)[C@H]32)c1` [Compound 30, (1S,3R,7S,8S,8aR)-8-(2-((2R,4R)-4-((tert-butyldimethylsilyl)oxy)-6-oxotetrahydro-2H-pyran-2-yl)ethyl)-3,7-dimethyl-1,2,3,7,8,8a-hexahydronaphthalen-1-yl (14-(2-(((2S,4R)-1-((S)-2-(1-fluorocyclopropane-1-carboxamido)-3,3-dimethylbutanoyl)-4-hydroxypyrrolidine-2-carboxamido)methyl)-5-(4-methylthiazol-5-yl)phenoxy)-3,6,9,12-tetraoxatetradecyl)carbamate], the DC50 lay within 50 to 500 nM.

Still in this assay, the particulars now being: treated for 18 hours, ratio of HMG-CoA reductase to GAPDH, read-out: DC50.
Consider `C[C@H]1C=C2C=C[C@H](C)[C@H](CC[C@@H]3C[C@@H](O[Si](C)(C)C(C)(C)C)CC(=O)O3)[C@H]2[C@@H](OC(=O)NCCCCCCCC(=O)Nc2cccc3c2C(=O)N(C2CCC(=O)NC2=O)C3=O)C1` (stereo partly drawn) [Compound 76, (1S,3R,7S,8S,8aR)-8-(2-((2R,4R)-4-((tert-butyldimethylsilyl)oxy)-6-oxotetrahydro-2H-pyran-2-yl)ethyl)-3,7-dimethyl-1,2,3,7,8,8a-hexahydronaphthalen-1-yl (8-((2-(2,6-dioxopiperidin-3-yl)-1,3-dioxoisoindolin-4-yl)amino)-8-oxooctyl)carbamate], for which the DC50 was less than 50 nM.

`C[C@H]1C=C2C=C[C@H](C)[C@H](CC[C@@H]3C[C@@H](O[Si](C)(C)C(C)(C)C)CC(=O)O3)[C@H]2[C@@H](OC(=O)NCCCOCCCCNc2cccc3c2C(=O)N(C2CCC(=O)NC2=O)C3=O)C1` (stereo partly drawn) [Compound 120, (1S,3R,7S,8S,8aR)-8-(2-((2R,4R)-4-((tert-butyldimethylsilyl)oxy)-6-oxotetrahydro-2H-pyran-2-yl)ethyl)-3,7-dimethyl-1,2,3,7,8,8a-hexahydronaphthalen-1-yl (3-(4-((2-(2,6-dioxopiperidin-3-yl)-1,3-dioxoisoindolin-4-yl)amino)butoxy)propyl)carbamate]: the DC50 is 50 to 500 nM.

Take `C[C@H]1C=C2C=C[C@H](C)[C@H](CC[C@@H]3C[C@@H](O[Si](C)(C)C(C)(C)C)CC(=O)O3)[C@H]2[C@@H](OC(=O)NCCOCCNc2cccc3c2C(=O)N(C2CCC(=O)NC2=O)C3=O)C1` (stereo partly drawn) [Compound 86, (1S,3R,7S,8S,8aR)-8-(2-((2R,4R)-4-((tert-butyldimethylsilyl)oxy)-6-oxotetrahydro-2H-pyran-2-yl)ethyl)-3,7-dimethyl-1,2,3,7,8,8a-hexahydronaphthalen-1-yl (2-(2-((2-(2,6-dioxopiperidin-3-yl)-1,3-dioxoisoindolin-4-yl)amino)ethoxy)ethyl)carbamate]: the DC50 is less than 50 nM.

For `C[C@H]1C=C2C=C[C@H](C)[C@H](CC[C@@H]3C[C@@H](O[Si](C)(C)C(C)(C)C)CC(=O)O3)[C@H]2[C@@H](OC(=O)NCCOCCOCCNc2ccc3c(c2)C(=O)N(C2CCC(=O)NC2=O)C3=O)C1` (stereo partly drawn) [Compound 67, (1S,3R,7S,8S,8aR)-8-(2-((2R,4R)-4-((tert-butyldimethylsilyl)oxy)-6-oxotetrahydro-2H-pyran-2-yl)ethyl)-3,7-dimethyl-1,2,3,7,8,8a-hexahydronaphthalen-1-yl (2-(2-(2-((2-(2,6-dioxopiperidin-3-yl)-1,3-dioxoisoindolin-5-yl)amino)ethoxy)ethoxy)ethyl)carbamate], the DC50 was less than 50 nM.

For `Cc1ncsc1-c1ccc(CNC(=O)[C@@H]2C[C@@H](O)CN2C(=O)[C@@H](NC(=O)COCCOCCOCCNC(=O)CCC(C)(C)C(=O)O[C@H]2C[C@@H](C)C=C3C=C[C@H](C)[C@H](CC[C@@H]4C[C@@H](O)CC(=O)O4)[C@H]32)C(C)(C)C)cc1` [Compound 10], the DC50 was less than 50 nM.

For the origin of these results see US12479840B2, “HMG-CoA reductase degradation inducing compound” (Uppthera, priority 2020, dated 2025).
